Measured values published in ChEMBL document CHEMBL1221340, “Lanostane triterpenes from Ganoderma lucidum suppress the adipogenesis in 3T3-L1 cells through down-regulation of SREBP-1c” (Bioorg Med Chem Lett, 2010).
The source made the active and inactive calls. No cut-off for these calls is given here.

Key:
[1] = test system: 3T3-L1; assay: Cytotoxicity against mouse 3T3L1 cells assessed as cell viability at up to 40 ug/ml; assay type: cell-based
[2] = test system: 3T3-L1; assay: Cytotoxicity against mouse 3T3L1 cells assessed as cell viability at up to 80 ug/ml; assay type: cell-based
[3] = test system: 3T3-L1; assay: Inhibition of adipogenesis in mouse 3T3L1 cells assessed as reduction of lipid accumulation at 40 ug/ml after 8 days relative to control; assay type: functional; settings: 3T3-L1, 192 h
[4] = test system: 3T3-L1; assay: Inhibition of adipogenesis in mouse 3T3L1 cells assessed as reduction of triglyceride accumulation at 80 ug/ml after 8 days; assay type: functional
[5] = test system: 3T3-L1; assay: Inhibition of adipogenesis in mouse 3T3L1 cells assessed as reduction of SREBP1c protein expression at 80 ug/ml after 8 days by Western blotting analysis; assay type: functional, cell-based
[6] = test system: 3T3-L1; assay: Inhibition of adipogenesis in mouse 3T3L1 cells assessed as reduction of FAS mRNA expression at 80 ug/ml after 8 days by RT-PCR analysis; assay type: functional, cell-based
[7] = test system: 3T3-L1; assay: Inhibition of adipogenesis in mouse 3T3L1 cells assessed as reduction of ACC mRNA expression at 80 ug/ml after 8 days by RT-PCR analysis; assay type: functional, cell-based
[8] = test system: 3T3-L1; assay: Inhibition of adipogenesis in mouse 3T3L1 cells assessed as reduction of SREBP1c mRNA expression at 80 ug/ml after 8 days by RT-PCR analysis relative to control; assay type: functional; settings: 3T3-L1, 192 h
[9] = test system: 3T3-L1; assay: Inhibition of adipogenesis in mouse 3T3L1 cells assessed as reduction of GPDH activity at 80 ug/ml after 8 days; assay type: functional

Row | SMILES | Activity [1] | inhibition [4] | inhibition [9] | other results
1 | COC(=O)[C@H](C)CC(=O)C[C@@H](C)[C@H]1C[C@H](O)[C@@]2(C)C3=C(C(=O)C[C@]12C)[C@@]1(C)CCC(=O)C(C)(C)[C@@H]1C[C@@H]3O | Non-toxic |  |  | Activity [2]: Non-toxic
2 | CCCCOC(=O)C(C)CC(=O)C[C@@H](C)[C@H]1C[C@H](O)[C@@]2(C)C3=C(C(=O)C[C@]12C)[C@@]1(C)CCC(=O)C(C)(C)[C@@H]1C[C@@H]3O (stereo partly specified) [BUTYL GANODERATE A] | Non-toxic | Active | Active | inhibition at 40 µg/mL [3]: 48%; inhibition [5]: Active; inhibition [6]: Active; inhibition [7]: Active; inhibition at 80 µg/mL [8]: 26%; Activity [2]: Non-toxic
3 | CCCCOC(=O)[C@H](C)CC(=O)C[C@@H](C)[C@H]1CC(=O)[C@@]2(C)C3=C(C(=O)C[C@]12C)[C@@]1(C)CC[C@H](O)C(C)(C)[C@@H]1C[C@@H]3O [BUTYL GANODERATE B] | Non-toxic | Active | Active | inhibition at 40 µg/mL [3]: 41%
4 | CCCCOC(=O)CC[C@@H](C)[C@H]1CC(=O)[C@@]2(C)C3=C(C(=O)C[C@]12C)[C@@]1(C)CCC(=O)C(C)(C)[C@@H]1C[C@@H]3O [BUTYL LUCIDENATE A] | Non-toxic |  |  | inhibition at 40 µg/mL [3]: 45%
5 | CCCCOC(=O)CC[C@@H](C)[C@H]1CC(=O)[C@@]2(C)C3=C(C(=O)C[C@]12C)[C@@]1(C)CC[C@H](O)C(C)(C)[C@@H]1C[C@@H]3O [BUTYL LUCIDENATE N] | Non-toxic | Active | Active | inhibition at 40 µg/mL [3]: 56%; inhibition [5]: Active; inhibition [6]: Active; inhibition [7]: Active; inhibition at 80 µg/mL [8]: 38%
6 | C[C@H](CC(=O)C[C@@H](C)[C@H]1C[C@H](O)[C@@]2(C)C3=C(C(=O)C[C@]12C)[C@@]1(C)CCC(=O)C(C)(C)[C@@H]1C[C@@H]3O)C(=O)O [GANODERIC ACID A] | Non-toxic |  |  | inhibition at 80 µg/mL ([4]; 3T3-L1, 192 h): 36%; Activity [2]: Non-toxic; inhibition at 80 µg/mL ([9]; 3T3-L1, 192 h): 48%
7 | CC(CC(=O)C[C@@H](C)[C@H]1CC(=O)[C@@]2(C)C3=C(C(=O)C[C@]12C)[C@@]1(C)CC[C@H](O)C(C)(C)[C@@H]1C[C@@H]3O)C(=O)O (stereo partly specified) [GANODERIC ACID B] | Non-toxic | Active | Active | 
8 | C[C@H](CC(=O)C[C@@H](C)[C@H]1CC(=O)[C@@]2(C)C3=C(C(=O)C[C@]12C)[C@@]1(C)CCC(=O)C(C)(C)[C@@H]1CC3=O)C(=O)O [GANODERIC ACID E] | Non-toxic |  |  | 
9 | CC(CC(=O)C[C@@H](C)[C@H]1C[C@H](O)[C@@]2(C)C3=C(C(=O)C[C@]12C)[C@@]1(C)CCC(=O)C(C)(C)[C@@H]1CC3)C(=O)O (stereo partly specified) [GANOLUCIDIC ACID A] | Non-toxic |  |  | 
10 | C[C@H](CCC(=O)O)[C@H]1CC(=O)[C@@]2(C)C3=C(C(=O)C[C@]12C)[C@@]1(C)CC[C@H](O)C(C)(C)[C@@H]1C[C@@H]3O [LUCIDENIC ACID N] | Non-toxic | Active | Active | 
11 | COC(=O)C(C)CC(=O)C[C@@H](C)[C@H]1CC(=O)[C@@]2(C)C3=C(C(=O)C[C@]12C)[C@@]1(C)CC[C@H](O)C(C)(C)[C@@H]1C[C@@H]3O (stereo partly specified) [METHYL GANODERATE B] | Non-toxic | Active | Active | 
12 | COC(=O)C(C)CC(=O)C[C@@H](C)[C@H]1CC(=O)[C@@]2(C)C3=C(C(=O)C[C@]12C)[C@@]1(C)CCC(=O)C(C)(C)[C@@H]1C[C@@H]3O (stereo partly specified) [METHYL GANODERATE D] | Non-toxic |  |  | 
13 | COC(=O)C(C)CC(=O)C[C@@H](C)[C@H]1CC(=O)[C@@]2(C)C3=C(C(=O)[C@@H](OC(C)=O)[C@]12C)[C@@]1(C)CC[C@H](O)C(C)(C)[C@@H]1CC3=O (stereo partly specified) [METHYL GANODERATE H] | Non-toxic |  |  | 
14 | COC(=O)CC[C@@H](C)[C@H]1CC(=O)[C@@]2(C)C3=C(C(=O)C[C@]12C)[C@@]1(C)CCC(=O)C(C)(C)[C@@H]1C[C@@H]3O [METHYL LUCIDENATE A] | Non-toxic |  |  | 
15 | COC(=O)CC[C@@H](C)[C@H]1CC(=O)[C@@]2(C)C3=C(C(=O)[C@@H](OC(C)=O)[C@]12C)[C@@]1(C)CC[C@H](O)C(C)(C)[C@@H]1CC3=O [METHYL LUCIDENATE E2] | Non-toxic |  |  | 
16 | COC(=O)CC[C@@H](C)[C@H]1CC(=O)[C@@]2(C)C3=C(C(=O)C[C@]12C)[C@@]1(C)CCC(=O)C(C)(C)[C@@H]1CC3=O [METHYL LUCIDENATE F] | Non-toxic |  |  | 
17 | COC(=O)CC[C@@H](C)[C@H]1CC(=O)[C@@]2(C)C3=C(C(=O)[C@@H](OC(C)=O)[C@]12C)[C@@]1(C)CC[C@H](O)C(C)(C)[C@@H]1C[C@@H]3O [METHYL LUCIDENATE P] | Non-toxic |  |  | 
